Measured values published in paper PMC3441526, “KCN1, a Novel Synthetic Sulfonamide Anticancer Agent: In Vitro and In Vivo Anti-Pancreatic Cancer Activities and Preclinical Pharmacology” (PLoS ONE, 2012).

How the values were obtained:
Mia Paca-2 cells [1] = test: Annexin V apoptosis assay; format: cell-based, human; conditions: Mia Paca-2, 50 µM, 48 h
Protocol: (§1) Cells in early and late stages of apoptosis were detected using an Annexin V-FITC apoptosis detection kit from BioVision (Mountain View, CA), according the manufacturer’s protocol, [47]. In brief, 2–3×10^5 cells were exposed to various doses of the test compound KCN1 (0, 5, 12.5, 50 µM) and incubated for 48 h prior to analysis. The samples were analyzed using a Becton Dickinson FACSCalibur instrument (Ex = 488 nm; Em = 530 nm). Cells that were positive for Annexin V-FITC alone (early apoptosis) and Annexin V-FITC and PI (late apoptosis) were counted.

Panc-1 cells [2] = test: Annexin V apoptosis assay; format: cell-based, human; conditions: Panc-1, 50 µM, 48 h
Protocol: as §1

HPAC cells = test: Annexin V apoptosis assay; format: cell-based, human; conditions: 50 µM, 48 h, against untreated control
Protocol: as §1

BxPC3 cells = test: Annexin V apoptosis assay; format: cell-based, human; conditions: BxPC3, 50 µM, 48 h
Protocol: as §1

Mia Paca-2 cells [3] = test: Cell cycle measurement by flow cytometry; format: cell-based, human; conditions: for cell cycle distribution, G1 / cell cycle distribution, G2/M / cell cycle distribution, S: 24 h
Protocol: (§2) To determine the effect of KCN1 on the cell cycle, cells (2–3×10^5) were exposed to the test compounds (0, 5, 12.5 or 50 µM) and incubated for 24 h prior to analysis. Cells were trypsinized, washed with PBS, and fixed in 1.5 mL of 95% ethanol at 4°C overnight, followed by incubation with RNAse and staining with propidium iodide (Sigma). The DNA content was determined by flow cytometry, [47].

Panc-1 cells [4] = test: Cell cycle measurement by flow cytometry; format: cell-based, human; conditions: for cell cycle distribution, G1 / cell cycle distribution, G2/M / cell cycle distribution, S: 24 h
Protocol: as §2

immortalized fibroblasts = test system: immortalized fibroblasts; parameters: method as in PMID 22923450; conditions: immortalized fibroblasts ref 31; cited from earlier work
[5] = Pharmacokinetic study, faecal recovery and late detection (strain not stated); format: in vivo, mice; conditions: for initial dose of parental compound recovered in feces: mice
Protocol: Female CD-1 and nude mice were administered 35 mg/kg body weight of KCN1 as either a single intravenous injection via a tail vein or via an intraperitoneal injection. At selected time points after dosing, groups of three mice/time point were subjected to a retro-orbital bleed. The blood was collected into heparinized tubes, and plasma was separated by centrifugation. Tissues (brain, skeletal muscle, kidneys, liver, spleen, and heart) were collected by necropsy. Urine and feces were collected on ice for 24 h from mice housed in metabolic cages (n = 3/study). The collection containers and cages were washed twice with 0.9% saline solution, and each urine collection and each wash was analyzed separately, then values were added together for each mouse to determine the total KCN1 present in urine during the collection period. Pharmacokinetic values were derived using Phoenix WinNonlin Version 6.0 (Mountain View, CA).

[6] = test system: Mia Paca-2 xenograft tumors; test: Subcutaneous xenograft tumor model; format: in vivo, nude mice (nu/nu); conditions: for decrease of tumor growth: 5 days/wk for 6 weeks
Protocol: (§3) The animal procedures were performed under approval by the Institutional Animal Use and Care Committee of Texas Tech University Health Sciences Center (IACUC # 10031, PHS Assurance # A 3056-01, USDA Registration # 74-R-0050, REF # 039436). Female athymic pathogen-free nude mice (nu/nu, 4–6 weeks) were purchased from Charles River Laboratories International Inc. (Wilmington, MA). To establish Panc-1 and Mia Paca-2 human pancreatic cancer xenograft tumors, cultured Panc-1 (5×10^6) and Mia Paca-2 (1×10^7) cells were harvested from monolayer cultures, washed twice with serum-free medium, re-suspended and injected subcutaneously (total volume 0.2 mL) into the left inguinal area of the mice. All animals were monitored for activity, physical condition, body weight, and tumor growth. Tumor size was determined every other day by caliper measurement of two perpendicular diameters of the implant. Tumor volume (in mm^3) was calculated by the formula, ½ (a × b ^2) where “a” is the long diameter and “b” is the short diameter, [47].
(§4) The animals bearing human cancer xenografts were randomly divided into various treatment groups and a control group (7–10 mice/group). The untreated control group received the vehicle only. For the Panc-1 and Mia Paca-2 xenograft models, KCN1 was dissolved in a 1∶1 solution of Cremophor EL (Sigma, St. Louis, MO): ethanol (200 Proof) by heating to 80–90°C in a water bath and vortexing, then diluted with an equal volume of phosphate-buffered saline, and was administered by intraperitoneal injection at doses of 30 and 60 mg/kg/d, 5d/wk for several weeks. Treatment was initiated once tumor volume reached ∼100 mm^3. The dosage regimen was decided based upon IC50 values obtained from in-vitro studies and adjustments for body surface and weight of the treated animal.

Panc-1 xenograft tumors = test: Subcutaneous xenograft tumor model; format: in vivo, nude mice (nu/nu); conditions: for tumor growth inhibition: 5 days/week, Day 21
Protocol: as §3, §4

[7] = Plasma protein binding assay (ultrafiltration); format: in vitro ADME; conditions: mouse plasma
Protocol: The extent to which KCN1 was bound by mouse plasma proteins was assessed by a previously described method involving the use of a micro-ultrafiltration system. Samples of mouse plasma containing KCN1 at concentrations of 1.0 and 10 µM were maintained at 37°C for 1 h. Controls were prepared using methanol in place of plasma. From each of these preparations, a portion was taken and placed in a sample reservoir of an Amicon Centrifree® ultrafiltration system (Millipore Co., Bedford, MA). The filter systems were centrifuged at 2,000 × g until the reservoirs were dry. From each sample, triplicate portions were taken for analysis by HPLC. The amounts present in the filtrate were designated as “free drug” (F). The concentrations of the unfiltered solutions were also determined by triplicate analyses. This amount represented the “total drug” concentration (T). The amount bound to the filter (X) was also considered. The percentage of KCN1 bound to plasma proteins was calculated by the following formula: % bound = [(T-F-X)/T]×100.

## COc1ccc(S(=O)(=O)N(Cc2ccc3c(c2)C=CC(C)(C)O3)c2ccccc2)cc1OC [KCN1, 3,4-dimethoxy-N-[(2,2-dimethyl-2H-chromen-6-yl)methyl]-N-phenylbenzenesulfonamide]
Mia Paca-2 cells [1]
  apoptotic activity: no detectable apoptotic activity
Panc-1 cells [2]
  apoptotic activity: no detectable apoptotic activity
HPAC cells
  apoptotic index: 1.4 fold
BxPC3 cells
  apoptotic activity: no detectable apoptotic activity
Mia Paca-2 cells [3]; Mia Paca-2, 5 µM
  cell cycle distribution, G1: 50.4±3.6
  cell cycle distribution, G2/M: 31.6±1.9
  cell cycle distribution, S: 18.0±0.9
Mia Paca-2 cells [3]; Mia Paca-2, 12.5 µM
  cell cycle distribution, G1: 55.2±1.2
  cell cycle distribution, G2/M: 24.6±0.9
  cell cycle distribution, S: 20.2±1.7
Mia Paca-2 cells [3]; Mia Paca-2, 50 µM
  cell cycle distribution, G1: 58.9±3.9
  cell cycle distribution, G2/M: 20.3±1.1
  cell cycle distribution, S: 20.8±1.5
Mia Paca-2 cells [3]; Mia Paca-2, 24 h
  concentration at which G1 arrest begins: 5 µM
Panc-1 cells [4]; Panc-1, 5 µM
  cell cycle distribution, G1: 40.3±2.2
  cell cycle distribution, G2/M: 30.9±0.8
  cell cycle distribution, S: 28.8±3.2
Panc-1 cells [4]; Panc-1, 12.5 µM
  cell cycle distribution, G1: 49.8±0.8
  cell cycle distribution, G2/M: 28.8±1.6
  cell cycle distribution, S: 21.4±0.9
Panc-1 cells [4]; Panc-1, 50 µM
  cell cycle distribution, G1: 53.3±2.3
  cell cycle distribution, G2/M: 29.1±1.4
  cell cycle distribution, S: 17.6±0.9
Panc-1 cells [4]; Panc-1, 24 h
  concentration at which G1 arrest begins: 12.5 µM
Immortalized fibroblasts
  cytostatic effect: little cytostatic effect
[5]; after intraperitoneal dosing (data not shown)
  time still detectable at a low level: at least five days
[5]; I.P. injection (data not shown)
  initial dose of parental compound recovered in feces: Approximately 1%
[5]; I.V. injection (data not shown)
  initial dose of parental compound recovered in feces: less than 1%
[6]; 30 mg/kg i.p.
  decrease of tumor growth: about 43%
[6]; 60 mg/kg i.p.
  decrease of tumor growth: ~57%
[6]; 30 or 60 mg/kg i.p.
  body weight versus controls: no significant differences in body weights
Panc-1 xenograft tumors; 30 mg/kg i.p.
  tumor growth inhibition: approximately 46%
Panc-1 xenograft tumors; 60 mg/kg i.p.
  tumor growth inhibition: 61%
Panc-1 xenograft tumors; 30 or 60 mg/kg i.p.
  body weight versus controls: no significant differences in body weights
[7]; 1.0 µM
  binding to plasma proteins: 90.96%
[7]; 10.0 µM
  binding to plasma proteins: 99.32%
